{"source": "the supplement of paper PMC10307832", "data": [{"compound": "COC1=CC=C(C=C1)COC2=C(C=C(C=C2)CC3=CN=C(N=C3N)N)OC [GW-2580] + CS(=O)(=O)N1CCN(Cc2cc3nc(-c4cccc5[nH]ncc45)nc(N4CCOCC4)c3s2)CC1 [Pictilisib] (partner 1 µM)", "assay": "relative viability (nuclei count vs DMSO), 5 days (fraction); higher = more cells survive", "conditions": "first compound 2.53 µM", "procedure,_shortened": "(§1)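 For relative viability, nuclei counts in treated wells were divided by those in vehicle wells. Lung cancer cell lines had been pin-tool dosed in 1536-well plates the day after seeding and cultured for 5 days, then fixed and stained in one step (final 0.05% Triton X-100, 1% formaldehyde, 1 ug/ml Hoechst) and imaged at 4×. Doses were one drug alone or a fixed anchor-drug dose plus five library-drug doses (not always all listed) in √10 steps, and values are duplicate-plate medians.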", "values": [{"cell line": "NCI-H1651", "relative viability": 0.597}]}, {"compound": "COC1=CC=C(C=C1)COC2=C(C=C(C=C2)CC3=CN=C(N=C3N)N)OC [GW-2580] + CS(=O)(=O)N1CCN(Cc2cc3nc(-c4cccc5[nH]ncc45)nc(N4CCOCC4)c3s2)CC1 [Pictilisib] (partner 1 µM)", "assay": "relative viability (nuclei count vs DMSO), 5 days (fraction); higher = more cells survive", "conditions": "first compound 8 µM", "procedure,_shortened": "as §1", "values": [{"cell line": "COR-L 105", "relative viability": 0.375}, {"cell line": "LOU-NH91", "relative viability": 0.535}, {"cell line": "NCI-H2405", "relative viability": 0.529}, {"cell line": "HOP-62", "relative viability": 0.736}, {"cell line": "HCC-44", "relative viability": 0.619}, {"cell line": "LU99A", "relative viability": 0.294}, {"cell line": "BEN", "relative viability": 0.515}, {"cell line": "HARA", "relative viability": 0.405}, {"cell line": "HCC-78", "relative viability": 0.227}, {"cell line": "NCI-H322M", "relative viability": 0.531}, {"cell line": "LCLC-97TM1", "relative viability": 0.181}, {"cell line": "NCI-H2009", "relative viability": 0.809}, {"cell line": "A-427", "relative viability": 0.655}, {"cell line": "NCI-H661", "relative viability": 0.361}, {"cell line": "NCI-H1734", "relative viability": 0.436}, {"cell line": "NCI-H460", "relative viability": 0.4}, {"cell line": "NCI-H2347", "relative viability": 0.717}, {"cell line": "SK-LU-1", "relative viability": 0.557}, {"cell line": "NCI-H1395", "relative viability": 0.632}, {"cell line": "201T", "relative viability": 0.68}, {"cell line": "NCI-H1915", "relative viability": 0.886}, {"cell line": "HCC-827", "relative viability": 0.963}, {"cell line": "LXF-289", "relative viability": 0.672}, {"cell line": "NCI-H23", "relative viability": 0.502}, {"cell line": "NCI-H647", "relative viability": 0.48}, {"cell line": "CAL-12T", "relative viability": 0.513}, {"cell line": "NCI-H1651", "relative viability": 0.599}]}, {"compound": "Cc1cnc(Nc2ccc(OCCN3CCCC3)cc2)nc1Nc1cccc(S(=O)(=O)NC(C)(C)C)c1 [Fedratinib] + CS(=O)(=O)CCNCc1ccc(-c2ccc3ncnc(Nc4ccc(OCc5cccc(F)c5)c(Cl)c4)c3c2)o1 [Lapatinib] (partner 2 µM)", "assay": "relative viability (nuclei count vs DMSO), 5 days (fraction); higher = more cells survive", "conditions": "first compound 0.1 µM", "procedure,_shortened": "as §1", "values": [{"cell line": "COR-L 105", "relative viability": 0.297}, {"cell line": "LOU-NH91", "relative viability": 0.732}, {"cell line": "NCI-H2405", "relative viability": 0.91}, {"cell line": "HOP-62", "relative viability": 0.969}, {"cell line": "HCC-44", "relative viability": 1.04}, {"cell line": "LU99A", "relative viability": 1.08}, {"cell line": "BEN", "relative viability": 0.665}, {"cell line": "HARA", "relative viability": 0.75}, {"cell line": "HCC-78", "relative viability": 0.929}, {"cell line": "NCI-H322M", "relative viability": 0.608}, {"cell line": "LCLC-97TM1", "relative viability": 1.14}, {"cell line": "NCI-H2009", "relative viability": 0.915}, {"cell line": "A-427", "relative viability": 1.06}, {"cell line": "NCI-H661", "relative viability": 0.471}, {"cell line": "NCI-H1734", "relative viability": 1.18}, {"cell line": "NCI-H460", "relative viability": 1.45}, {"cell line": "NCI-H2347", "relative viability": 1.03}, {"cell line": "SK-LU-1", "relative viability": 0.851}, {"cell line": "NCI-H1395", "relative viability": 0.911}, {"cell line": "201T", "relative viability": 1.01}, {"cell line": "NCI-H1915", "relative viability": 0.891}, {"cell line": "HCC-827", "relative viability": 0.187}, {"cell line": "LXF-289", "relative viability": 0.894}, {"cell line": "NCI-H23", "relative viability": 1.23}, {"cell line": "NCI-H647", "relative viability": 1.22}, {"cell line": "CAL-12T", "relative viability": 0.688}, {"cell line": "NCI-H1651", "relative viability": 0.817}]}, {"compound": "Cc1cnc(Nc2ccc(OCCN3CCCC3)cc2)nc1Nc1cccc(S(=O)(=O)NC(C)(C)C)c1 [Fedratinib] + CS(=O)(=O)CCNCc1ccc(-c2ccc3ncnc(Nc4ccc(OCc5cccc(F)c5)c(Cl)c4)c3c2)o1 [Lapatinib] (partner 2 µM)", "assay": "relative viability (nuclei count vs DMSO), 5 days (fraction); higher = more cells survive", "conditions": "first compound 0.3162 µM", "procedure,_shortened": "as §1", "values": [{"cell line": "COR-L 105", "relative viability": 0.379}, {"cell line": "LOU-NH91", "relative viability": 0.798}, {"cell line": "NCI-H2405", "relative viability": 1.07}, {"cell line": "HOP-62", "relative viability": 0.88}, {"cell line": "HCC-44", "relative viability": 0.911}, {"cell line": "LU99A", "relative viability": 0.988}, {"cell line": "BEN", "relative viability": 0.585}, {"cell line": "HARA", "relative viability": 0.627}, {"cell line": "NCI-H322M", "relative viability": 0.615}, {"cell line": "LCLC-97TM1", "relative viability": 0.711}, {"cell line": "NCI-H2009", "relative viability": 1.02}, {"cell line": "A-427", "relative viability": 0.984}]}]}
